Test results: patent US20230000876A1, “TREATING CANCERS WITH A CYCLIN-DEPENDENT KINASE INHIBITOR” (Nuvation Bio Inc., priority 2021, published 2023)
Where two headings read alike, the source gives them in different places.

Experiments:
MCF-7 tumors = format: in vivo; settings: for T/C / TGI: PG-D37
Procedure: The in vivo anti-tumor efficacy of the compound of formula (I) either alone or in combination with fulvestrant on MCF-7 breast tumor model on female Balb/c nude mice was assessed. MCF-7 cells are a breast cancer cell line that is HR+HER2−. See Booms et al., (2019) Cancer Epidemiol Biomarkers Prev 28(10); 1735-1745, which is hereby incorporated by reference.
The study was in two parts. The first part was designed to measure tumor growth inhibition (TGI). The second part was used to measure pharmacokinetic and pharmacodynamic (PKPD) parameters. In the studies, the compound of formula (I) was dosed orally (po) and fulvestrant was dosed subcutaneously. […]
The MCF-7 tumor cells were maintained in vitro in MEM supplemented with 10% heat inactivated fetal bovine serum at 37° C. in an atmosphere of 5% CO2 in air. The tumor cells were routinely subcultured twice weekly. The cells growing in an exponential growth phase were harvested and counted for tumor inoculation.
Each mouse was inoculated subcutaneously at the right flank with MCF-7 (10*10^6) cells in 0.2 mL of PBS mixed with Matrigel (50:50) for tumor development. 17β-Estradiol (0.36 mg, 60-day release) pellets (Innovative Research of America Cat. No.: SE-121, pellet size: 3.0 mm) were implanted 2 days before cell inoculation.
In TGI part, the treatments was started on day 7 after cell inoculation when the average tumor volume reaches 173 mm^3. 72 mice were selected and assigned into 9 groups. The testing articles were administrated to the mice according to Table 1.
For TGI part, the major endpoint was to see if the tumor growth could be delayed or mice could be cured. Tumor size was measured twice weekly in two dimensions using a caliper, and the volume was expressed in mm^3 using the formula: V=0.5 a×b^2 where a and b are the long and short diameters of the tumor, respectively. The tumor sizes are then used for the calculation of T/C and TGI values.
The T/C value (in percent) is an indication of antitumor effectiveness; T and C are the mean volume of the treated and control groups, respectively, on a given day.
TGI was calculated for each group using the formula: TGI (%)=[1−(Ti−T0)/(Vi−V0)]×100; Ti is the average tumor volume of a treatment group on PG-Di, T0 is the average tumor volume of the treatment group on the day of treatment start, Vi is the average tumor volume of the vehicle control group on the same day with Ti, and V0 is the average tumor volume of the vehicle group on the day of treatment start.
For comparison among of tumor volume of groups 2-9 and group 1, a one-way ANOVA was performed. All the analysis were conducted using GraphPad Prism software. p<0.05 was considered to be statistically significant.

xBT474 breast tumor = xBT474 breast tumor model (ER-negative/HER2-positive); settings: Group 5: Compound (I) 30 mg/kg PO QD*28 days

In the case of `CC(C)N1CCOc2c(F)cc(-c3nc(Nc4ccc(C5CCN(C)CC5)cn4)ncc3F)cc21` [Compound (I), 5-fluoro-4-(8-fluoro-4-isopropyl-3,4-dihydro-2H-benzo[b][1,4]oxazin-6-yl)-N-(5-(1-methylpiperidin-4-yl)pyridin-2-yl)pyrimidin-2-amine], the “Tumor volume (mean ± SEM)” value (MCF-7 tumors; 10 mg/kg PO QD, day 0) is reported as 173 ± 12 mm^3, the “Tumor volume (mean ± SEM)” value (MCF-7 tumors; 10 mg/kg PO QD, day 3) is reported as 195 ± 14 mm^3 and the “Tumor volume (mean ± SEM)” value (MCF-7 tumors; 10 mg/kg PO QD, day 6) is reported as 188 ± 25 mm^3. The “Tumor volume (mean ± SEM)” value (MCF-7 tumors; 10 mg/kg PO QD, day 9) was 185 ± 15 mm^3, the “Tumor volume (mean ± SEM)” value (MCF-7 tumors; 10 mg/kg PO QD, day 13) was 179 ± 21 mm^3 and the “Tumor volume (mean ± SEM)” value (MCF-7 tumors; 10 mg/kg PO QD, day 16) was 187 ± 22 mm^3. For the same molecule, the “Tumor volume (mean ± SEM)” value (MCF-7 tumors; 10 mg/kg PO QD, day 20) was 228 ± 36 mm^3, the “Tumor volume (mean ± SEM)” value (MCF-7 tumors; 10 mg/kg PO QD, day 23) was 268 ± 37 mm^3 and the “Tumor volume (mean ± SEM)” value (MCF-7 tumors; 10 mg/kg PO QD, day 27) was 310 ± 56 mm^3. For the same molecule, the “Tumor volume (mean ± SEM)” value (MCF-7 tumors; 10 mg/kg PO QD, day 30) was 358 ± 60 mm^3, the “Tumor volume (mean ± SEM)” value (MCF-7 tumors; 10 mg/kg PO QD, day 34) was 446 ± 93 mm^3 and the “Tumor volume (mean ± SEM)” value (MCF-7 tumors; 10 mg/kg PO QD, day 37) was 505 ± 116 mm^3. The “Tumor volume (mean ± SEM)” value (MCF-7 tumors; 10 mg/kg PO QD, day 41) was 530 ± 113 mm^3, the “Tumor volume (mean ± SEM)” value (MCF-7 tumors; 10 mg/kg PO QD, day 44) was 468 ± 99 mm^3 and the “Tumor volume (mean ± SEM)” value (MCF-7 tumors; 10 mg/kg PO QD, day 48) was 472 ± 120 mm^3. For the same molecule, the T/C (MCF-7 tumors; 10 mg/kg QD) was 25.18%, the TGI (MCF-7 tumors; 10 mg/kg QD) was 81.88% and the “Tumor volume (mean ± SEM)” value (MCF-7 tumors; 30 mg/kg PO QD, day 0) was 173 ± 11 mm^3. The “Tumor volume (mean ± SEM)” value (MCF-7 tumors; 30 mg/kg PO QD, day 3) was 192 ± 16 mm^3, the “Tumor volume (mean ± SEM)” value (MCF-7 tumors; 30 mg/kg PO QD, day 6) was 151 ± 24 mm^3 and the “Tumor volume (mean ± SEM)” value (MCF-7 tumors; 30 mg/kg PO QD, day 9) was 153 ± 19 mm^3. For the same molecule, the “Tumor volume (mean ± SEM)” value (MCF-7 tumors; 30 mg/kg PO QD, day 13) was 147 ± 17 mm^3, the “Tumor volume (mean ± SEM)” value (MCF-7 tumors; 30 mg/kg PO QD, day 16) was 154 ± 18 mm^3 and the “Tumor volume (mean ± SEM)” value (MCF-7 tumors; 30 mg/kg PO QD, day 20) was 159 ± 21 mm^3. For the same molecule, the “Tumor volume (mean ± SEM)” value (MCF-7 tumors; 30 mg/kg PO QD, day 23) was 175 ± 23 mm^3, the “Tumor volume (mean ± SEM)” value (MCF-7 tumors; 30 mg/kg PO QD, day 27) was 168 ± 25 mm^3 and the “Tumor volume (mean ± SEM)” value (MCF-7 tumors; 30 mg/kg PO QD, day 30) was 186 ± 28 mm^3. For the same molecule, the “Tumor volume (mean ± SEM)” value (MCF-7 tumors; 30 mg/kg PO QD, day 34) was 193 ± 34 mm^3, the “Tumor volume (mean ± SEM)” value (MCF-7 tumors; 30 mg/kg PO QD, day 37) was 227 ± 41 mm^3 and the “Tumor volume (mean ± SEM)” value (MCF-7 tumors; 30 mg/kg PO QD, day 41) was 228 ± 51 mm^3. For the same molecule, the “Tumor volume (mean ± SEM)” value (MCF-7 tumors; 30 mg/kg PO QD, day 44) was 234 ± 52 mm^3, the “Tumor volume (mean ± SEM)” value (MCF-7 tumors; 30 mg/kg PO QD, day 48) was 206 ± 39 mm^3 and the T/C (MCF-7 tumors; 30 mg/kg QD) was 11.32%. For the same molecule, the TGI (MCF-7 tumors; 30 mg/kg QD) was 97.06%, the “Toxicity (body weight as indirect measurement)” value (MCF-7 tumors; MCF-7 tumor-bearing mice, 10 or 30 mg/kg PO QD, alone or with fulvestrant, 49 days) was “not toxic” and the “Tumor volume (mean ± SEM)” value (xBT474 breast tumor; Day 0) was 146 ± 8 mm^3. For the same molecule, the “Tumor volume (mean ± SEM)” value (xBT474 breast tumor; Day 4) was 240 ± 20 mm^3, the “Tumor volume (mean ± SEM)” value (xBT474 breast tumor; Day 7) was 250 ± 22 mm^3 and the “Tumor volume (mean ± SEM)” value (xBT474 breast tumor; Day 11) was 347 ± 45 mm^3. For the same molecule, the “Tumor volume (mean ± SEM)” value (xBT474 breast tumor; Day 14) was 408 ± 42 mm^3, the “Tumor volume (mean ± SEM)” value (xBT474 breast tumor; Day 18) was 490 ± 59 mm^3 and the “Tumor volume (mean ± SEM)” value (xBT474 breast tumor; Day 21) was 549 ± 73 mm^3. For the same molecule, the “Tumor volume (mean ± SEM)” value (xBT474 breast tumor; Day 25) was 576 ± 79 mm^3, the “Tumor volume (mean ± SEM)” value (xBT474 breast tumor; Day 28) was 617 ± 84 mm^3 and the “Tumor volume (mean ± SEM)” value (xBT474 breast tumor; Day 32) was 658 ± 99 mm^3. For the same molecule, the “Tumor volume (mean ± SEM)” value (xBT474 breast tumor; Day 35) was 721 ± 119 mm^3, the “Tumor volume (mean ± SEM)” value (xBT474 breast tumor; Day 39) was 685 ± 107 mm^3 and the “Tumor volume (mean ± SEM)” value (xBT474 breast tumor; Day 42) was 694 ± 120 mm^3. For the same molecule, the “Tumor volume (mean ± SEM)” value (xBT474 breast tumor; Day 46) was 707 ± 116 mm^3.
